Experimental data published in patent US10232043B2, “Photoactivated molecules for light-induced modulation of the activity of electrically excitable cells and methods of using the same” (UNIVERSITY OF SOUTHERN CALIFORNIA, priority 2015, dated 2019).

Key:
RCS rats = experiment: Extracellular recording from superior colliculus after intravitreal injection; type: in vivo, rat
From the text: FIGS. 27C-27F depict data related to administration of Rubpy-C17. White light was used for illumination in panels A, C, and D, while blue light (450 nm) was used in panels B, E, and F.
This finding was reproduced in 3 of 3 RCS rats injected with Rubpy-C17, and in 2 of 2 control (sham injection) RCS rats.

[1] = tested on: cell lines and primary cells; experiment: Cell tolerance to RubpyC17 incubation (gigaseal stability, viability); type: cell-based
Protocol: However, in several embodiments, other organic ligands coupled to other transition metals are also used, with reduced and/or non-existent adverse side effects. […] Excessive and prolonged whole cell incubation with RubpyC17 (e.g., >10 μM for >5 min) may result in cell toxicity, since a stable gigaseal cannot be stably maintained in those cells. At this time, the mechanism behind the adverse effects on cell health upon RubpyC17 overexposure is not yet fully known. Since perforation was not achieved when a small patch of membrane was exposed to a high dose of RupbyC17, it was hypothesized that when an entire cell is overexposed to RubpyC17, there may be sufficient random interactions between excess RubpyC17 complex and endogenous surface molecules (i.e., proteins, carbohydrates, sugars), triggering signals that lead to cell health deterioration. However, when used in its appropriate dose range (e.g., <about 10 μM for cell lines and <about 2 μM for primary cells, according to one embodiment), RubpyC17 is tolerated by cells and consistently confers light sensitivity.

[2] = tested on: endogenous ion channels of chromaffin cells; experiment: Voltage-clamp current-voltage relationship and steady-state activation; type: cell-based, mouse; conditions: before and during light illumination
From the text: FIGS. 21A-21H depict data from various experiments related to characteristics of RubpyC17-loaded cells. […] Inset images shown to the right of trace confirmed proper integration of RubpyC17 in patched cells. FIGS. 21C-21E show the light-induced action potential firing in chromaffin cells was not due to biophysical changes in voltage-gated ion channels as there were no significant changes in current-voltage relationships (21C-21D) nor in steady-state activation curve (21E) in RubpyC17-loaded chromaffin cells before (open circle) or during (open circle) light illumination. […] Peak inward currents from each stimulation jump were plotted against corresponding stimulating voltages (n=6). […] Data from representative cell is shown (n=5). […] Currents resulting from capacitor-like behavior of chromaffin cell membranes during hyperpolarizing jumps to −85 mV from a resting membrane potential of −80 mV were recorded 5 min following giga-seal formation for amphoterecin B (bottom trace) or 10 min following giga-seal formation for RubpyC17 (top trace).
To examine whether light-activated RubpyC17 can directly interact and open or block endogenous ion channels, HEK293T cells were preincubated with RubpyC17, and patch-clamped in a voltage-clamp configuration. […]

HEK293T cells = experiment: Effect of PF6:Cl counter ion ratio of Rubpy-C17 on HEK293T cells; type: cell-based
Protocol: In some embodiments, the 20 mg of Rubpy-C17 is stored in −20° C. with desiccant in the dark. […] 253 μl of DMSO is then added into the original bottle containing Rubpy-C17 to make 100 mM stock solution. In some embodiments, the stock solution is aliquot and stored in −20° C. with desiccant in the dark.
In some examples, on the day before or on, the same day of the experiment, the following 2.5 mM external solution is prepared using the following steps. The external solution is warmed up to 37° C. For […] of the external solution, 0.176 grams of absorbic acid was added. Another 240 μL 5M NaOH was added to adjust the pH to between about 7.2-7.4. The absorbic solution can then be filtered through a 0.2 μm filter. The solution is then stored in the dark in 4° C. In some examples, the solution must be used within one week.
The 100 mM of Rubpy solution is first thawed from −20° C. 100 mM Rubpy is then diluted to 10 mM Rubpy: 2 μL 100 mM Rubpy+18 μL DMSO. In some examples, this is vortexted to mix and then centrifuged down with a small bench-top. The culture, medium is aspirated and the cells are rinsed with external solution several times. The external solution can then be aspirated. In some examples, enough of the external solution is left on the cells to prevent it from drying. 500 μL of external solution with 2.5 mM of ascorbic acid can then be added.
In some examples, 1 μL of 10 mM of Rubpy to […] of external solution with 2.5 mM ascorbic acid and mixed well. This should produce a final concentration of 10 μM of Rubpy with 0.1% DMSO. This mixed solution is then added to the above referenced cells and incubated for 10 minutes.
The solution can then be aspirated from the plate and rinsed with regular external solution several times. 2 mL of external solution is added to 2.5 mM ascorbic acid for recording. For each plate, a baseline control is taken by recording the first cell before performing any light-stimulating protocol. The light-stimulus can include 10-40 s in duration and bandpassed at 455-495 nm (blue light).
As discussed above, the mixture a 10 μM of RubpyC17 solution was placed in 10 HEK293T cells.

mouse chromaffin cells = experiment: Carbon-fiber amperometry, light-triggered secretion; type: cell-based
Protocol: Carbon fiber electrodes were prepared using established methodology and coupled to an EPC10 amplifier. A +800 mV constant voltage was applied to the electrode relative to the Ag/AgCl bath electrode. The amperometry recordings were sampled at 4 kHz using Pulsemaster (HEKA). Extracellular composition consisted of 120 mM NaCl, 20 mM KCl, 10 mM HEPES, 1 mM MgCl2, 2 mM CaCl2, 10 mM glucose, pH adjusted to 7.2-7.4, and osmolarity adjusted to 290-300. Light stimulation in the blue spectrum originated from a xenon lamp source through a 470/40 nm bandpass excitation filter. The duration of illumination varied and is indicated by bars on figures.
Action potential firing triggers secretion of norepinephrine and epinephrine from adrenal chromaffin cells, which can be readily detected by the technique of carbon-fiber amperometry, thus serving as a surrogate to detect action potential firing. […] Out of 18 RubpyC17-loaded cells tested, 15 cells (83%) experienced increased secretion by at least 100-fold during light illumination. Unlike the changes in light-induced depolarization, light-induced changes in secretion appeared to be more transient One possible explanation for this is that at any moment in time, there are only a small number of release-competent vesicles—the so-called readily releasable pool of vesicles and maintained stimulation causes rapid depletion of the readily releasable pool of vesicles in the initial phase of stimulation.

CCCCCCCCCCCCCCCCCc1ccnc(-c2cc(C)ccn2)c1.F[P-](F)(F)(F)(F)F.F[P-](F)(F)(F)(F)F.[Ru+2].c1ccc(-c2ccccn2)nc1.c1ccc(-c2ccccn2)nc1 [RubpyC17, [Ru(bpy)2(bpy-C17)](PF6)2]
rats in which the finding was reproduced (RCS rats; RCS rats injected with Rubpy-C17): 3 of 3
time after injection with light-induced SC electrical responses (RCS rats; eye injection, RCS rats): up to 3 days
light-elicited electrical activity in superior colliculus field recording (RCS rats; intravitreal, final concentration 100 μM, 30 minutes later, blind RCS rats): elicited reproducible and stereotypical electrical activity
dose range tolerated by cells ([1]; cell lines): < 10 µM
viability after incubation ([1]; chromaffin cells, ~30 min with RubpyC17): continued viability of chromaffin cells
whole cell incubation concentration that may result in cell toxicity ([1]; for >5 min, stable gigaseal not maintained): > 10 µM
dose range tolerated by cells ([1]; primary cells): < 2 µM
biophysical properties of endogenous ion channels [2]: does not alter the biophysical properties of endogenous ion channels
fluorescence pattern (HEK293T cells; only PF6 counter ions): punctuate fluorescence
Cell Death (HEK293T cells; only counter ion is chloride): cell death is observed
amperometric current spikes (vesicular secretion) under light (mouse chromaffin cells; 2 μM RubpyC17, 488 nm): exhibited numerous amperometric current spikes
cells with increased secretion during light illumination (mouse chromaffin cells; 15 of 18 RubpyC17-loaded cells): 83%
increase of secretion during light illumination (mouse chromaffin cells; responding cells): at least 100 fold
